Laboratory results taken from patent publication US9371331B2, “Modulators of methyl modifying enzymes, compositions and uses thereof” (Constellation Pharmaceuticals, Inc., priority 2012, dated 2016).
Read-outs that look alike come from different tables or passages of the source.

Legend:
[1] = target: EZH2 (rPRC2) (Homo sapiens, UniProt Q15910); assay: EZH2 assay: rPRC2, biotinylated oligonucleosomes, 3H SAM methyl transfer (FlashPlate scintillation); format: biochemical; settings: biotinylated oligonucleosome substrate
Chain of EZH2 (rPRC2) (Q15910 whole entry): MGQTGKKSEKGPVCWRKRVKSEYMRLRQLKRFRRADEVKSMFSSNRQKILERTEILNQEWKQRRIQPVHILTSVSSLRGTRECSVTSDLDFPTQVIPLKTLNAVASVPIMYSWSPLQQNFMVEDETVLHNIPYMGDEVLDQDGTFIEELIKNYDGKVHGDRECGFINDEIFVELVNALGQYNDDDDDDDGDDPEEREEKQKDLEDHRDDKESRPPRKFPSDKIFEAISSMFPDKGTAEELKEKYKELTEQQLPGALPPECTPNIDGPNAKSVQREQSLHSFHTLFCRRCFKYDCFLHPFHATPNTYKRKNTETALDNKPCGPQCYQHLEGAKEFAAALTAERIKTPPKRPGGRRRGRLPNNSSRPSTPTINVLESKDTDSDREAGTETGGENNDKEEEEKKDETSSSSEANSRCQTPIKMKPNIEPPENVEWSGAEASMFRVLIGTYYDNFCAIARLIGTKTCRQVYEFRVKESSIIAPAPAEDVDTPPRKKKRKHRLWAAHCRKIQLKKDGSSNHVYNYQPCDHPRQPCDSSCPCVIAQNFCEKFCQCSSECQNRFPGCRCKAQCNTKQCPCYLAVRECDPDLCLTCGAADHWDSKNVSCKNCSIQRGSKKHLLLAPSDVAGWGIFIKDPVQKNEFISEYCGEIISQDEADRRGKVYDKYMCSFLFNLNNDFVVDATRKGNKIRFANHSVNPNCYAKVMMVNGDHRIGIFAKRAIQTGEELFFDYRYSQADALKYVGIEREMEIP
Chain of EZH2 (rPRC2) (O75530 whole entry partner): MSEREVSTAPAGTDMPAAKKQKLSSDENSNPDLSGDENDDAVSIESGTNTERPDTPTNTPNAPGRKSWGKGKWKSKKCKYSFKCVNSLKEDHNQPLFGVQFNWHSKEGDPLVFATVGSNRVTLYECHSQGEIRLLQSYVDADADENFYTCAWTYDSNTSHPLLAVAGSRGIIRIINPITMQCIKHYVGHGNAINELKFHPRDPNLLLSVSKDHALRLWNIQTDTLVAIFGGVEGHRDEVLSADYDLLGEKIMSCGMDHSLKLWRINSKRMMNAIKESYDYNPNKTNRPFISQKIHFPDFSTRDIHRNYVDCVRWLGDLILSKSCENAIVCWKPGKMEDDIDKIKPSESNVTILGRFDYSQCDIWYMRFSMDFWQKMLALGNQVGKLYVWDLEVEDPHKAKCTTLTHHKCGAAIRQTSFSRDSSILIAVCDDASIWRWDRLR
Chain of EZH2 (rPRC2) (Q15022 whole entry partner): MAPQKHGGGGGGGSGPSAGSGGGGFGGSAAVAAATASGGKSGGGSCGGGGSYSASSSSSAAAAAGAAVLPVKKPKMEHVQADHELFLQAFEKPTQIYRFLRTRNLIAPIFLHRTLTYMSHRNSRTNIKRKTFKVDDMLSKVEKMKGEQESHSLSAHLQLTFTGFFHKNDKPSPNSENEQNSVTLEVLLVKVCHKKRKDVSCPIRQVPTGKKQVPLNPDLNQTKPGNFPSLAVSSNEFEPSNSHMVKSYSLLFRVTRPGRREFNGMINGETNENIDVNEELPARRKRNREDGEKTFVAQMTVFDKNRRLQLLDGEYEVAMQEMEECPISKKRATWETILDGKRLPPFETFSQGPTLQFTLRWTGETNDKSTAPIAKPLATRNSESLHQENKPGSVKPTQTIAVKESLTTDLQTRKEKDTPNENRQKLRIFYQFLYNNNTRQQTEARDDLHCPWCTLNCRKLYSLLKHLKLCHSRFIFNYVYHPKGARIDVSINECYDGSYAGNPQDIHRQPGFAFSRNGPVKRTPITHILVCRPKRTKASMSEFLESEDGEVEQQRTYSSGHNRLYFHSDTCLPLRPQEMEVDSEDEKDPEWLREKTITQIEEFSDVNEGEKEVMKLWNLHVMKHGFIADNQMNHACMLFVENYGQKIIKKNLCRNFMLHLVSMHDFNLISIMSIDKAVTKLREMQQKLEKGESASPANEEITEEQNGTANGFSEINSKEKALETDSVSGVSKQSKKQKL

[2] = tested on: H3K27me3 mark in HeLa cells; assay: H3K27me3 MSD Hela Assay; format: cell-based; settings: read-out: H3K27me3_MSD_HeLa_ (EC50)
Experimental: Trypsinized HeLa cells were counted and diluted in 10% DMEM (Life Technologies, Cat. #10569) to 5000 cells/75 μL. Seventy-five […] of cells were place in each well of a 96-well flat-bottomed plate and incubated at 37° C. for 4 hours. Twenty-five μL of test compound (at various concentrations) was added to the cells and incubation continued at 37° C. for 96 hours. Media was then removed and the cells rinsed once with ice cold PBS. Forty μL of ice-cold MSD Buffer AT (10 mM HEPES, pH 7.9, 5 mM MgCl2, 0.25M sucrose, Benzonase (1:10000), 1% Triton X-100 supplemented with fresh 1× Protease Inhibitor cocktail and 1 mM 4-(2-Aminoethyl)benzenesulfonyl fluoride hydrochloride (AEBSF)) was added to each well and the plates placed on ice for 30 minutes. Ten μL of 5M NaCl was then added to each well and incubation on ice continued for another 15 minutes. The material in each well was suspended pipetting up and down and then transferred to a new 96 well plate. The emptied wells were rinsed with 150 uL ice-cold 20 mM Tris pH 7.5, 1 mM EDTA, 1 mM EGTA, supplemented with fresh 1× Protease Inhibitor cocktail and 1 mM AEBSF (“NO salt NO detergent buffer) and transferred to the respective wells in the new plate. Three hundred μL of NO Salt NO detergent buffer was then added to each well of lysates and the plates frozen at −80° C.
On the same day, an appropriate number of MSD standard bind 96-well plates were coated with 30 μL/well of total H3 capture antibody (Millipore. Cat #MAB3422) at 1 μg/mL concentration in PBS. The antibody solution was evenly distributed first by tapping gently on the sides of the plates and then by shaking the plates for a few minutes at 1000 rpm. Antibody coated plates were stored at 4° C. overnight.
The next day the lysates are thawed to RT. The antibody coated MSD plates are washed 3× with TBS-T (Tris-buffered saline (Fisher Scientific, Cat #BP2471-1)+0.2% Tween-20). One-hundred fifty μL of 5% Blocker A in TBS-T is added to each well. The wells are covered and shaken on a shaker at RT for one hour. The Blocker A step is repeated a second time. After removing the blocker, 25 μL of cell lysate is transferred into each antibody coated well. The plates are shaken for 2 hours at RT, the lysate removed and the plates again washed with Blocker A in TBS-T. Twenty-five μL of appropriate freshly prepared antibody mix (including both primary and secondary antibodies) is added to each well and the plates shaken for 1 hour at RT.
Both H3 antibodies were obtained from Cell Signalling (Cat #s 4499 and 9733). The goat anti-rabbit antibody was obtained from Meso-Scale Discovery (Cat #R32AB-1).
The antibody mix was then removed and the wells washed with Blocker A. One hundred-fifty μL of freshly prepared 1×MSD Read Buffer (Meso-Scale Discovery; Cat #R927C-2) was then added to each well and the plates read on a MSD Sector 2400 Plate Reader.
Data was analyzed using Assay Assistant (Constellation Pharmaceuticals In-house product) and Activity Base (IDBS Ltd, Surrey, UK) template. Data files were imported to Assay Assistant and assay conditions were specified. A unique Analysis ID was created and the data files exported to Activity Base. An analysis template was created on Activity Base to measure dose-dependent inhibition of H3K27me3 mark and cell viability respectively. Readout of DMSO wells were used to normalize the data. Resulting curves were fitted using Activity base software Model 205 (IDBS Ltd. Surrey, UK). The data was checked for quality, validated and integrated in excel format using SARview (IDBS Ltd, Surrey, UK).

[3] = target: Y641N EZH2 (Homo sapiens, UniProt Q15910, Y641N); assay: Y641N EZH2 assay: as EZH2 assay, with reconstituted H3K27Me2 oligonucleosomes as substrate; format: biochemical
Chain of Y641N EZH2 (Q15910 whole entry Y641N): as the sequence (Q15910 whole entry) above, with Y641N counted along it
Chain of Y641N EZH2 (O75530 whole entry partner): as the sequence (O75530 whole entry partner) above
Chain of Y641N EZH2 (Q15022 whole entry partner): as the sequence (Q15022 whole entry partner) above

[4] = EZH2 IC50, wild-type EZH2 (rPRC2)
[5] = Y641N EZH2 IC50, Y641N mutant EZH2, H3K27Me2 oligonucleosome substrate

SMILES | IC50 [1, 4] | EC50 ([2]; Homo sapiens, HeLa, 96 h) | IC50 [3, 5] | IC50 ([1]; wild-type EZH2 (rPRC2), read-out: EZH2 IC50) | EC50 ([2]; Homo sapiens, HeLa cells, MSD, 96 hours) | IC50 ([3]; Y641N mutant EZH2, H3K27Me2 oligonucleosome substrate, read-out: Y641N EZH2 IC50) | IC50 ([1]; read-out: EZH2 IC50, wild-type EZH2 (rPRC2)) | EC50 ([2]; HeLa cells, MSD, 96 hours)
Cc1cc(C)c(CNC(=O)c2c(C)n(C(C)c3ccccc3)c3ncccc23)c(O)n1 (racemic) [Compound 146, N-((2-hydroxy-4,6-dimethylpyridin-3-yl)methyl)-2-methyl-1-(1-phenylethyl)-1H-pyrrolo[2,3-b]pyridine-3-carboxamide] | < 100 nM | 400 to 2000 nM | 100 to 1000 nM | – | – | – | – | –
Cc1cc(C)c(CNC(=O)c2c(C)n(C(C)c3ccc(F)cc3)c3ccccc23)c(=O)[nH]1 (racemic) [Compound 166, (±)-N-((4,6-dimethyl-2-oxo-1,2-dihydropyridin-3-yl)methyl)-1-(1-(4-fluorophenyl)ethyl)-2-methyl-1H-indole-3-carboxamide] | < 100 nM | 2000 to 10000 nM | 100 to 1000 nM | – | – | – | – | –
Cc1cc(C)c(CNC(=O)c2c(C)n(C(C)c3ccc(Cl)cc3)c3ccccc23)c(=O)[nH]1 (racemic) [Compound 170, (±)-1-(1-(4-chlorophenyl)ethyl)-N-((2-hydroxy-4,6-dimethylpyridin-3-yl)methyl)-2-methyl-1H-indole-3-carboxamide] | < 100 nM | 2000 to 10000 nM | 100 to 1000 nM | – | – | – | – | –
Cc1cc(C)c(CNC(=O)c2c(C)n(C(C)c3cccc(Br)c3)c3ccccc23)c(=O)[nH]1 (racemic) [Compound 171, (±)-1-(1-(3-bromophenyl)ethyl)-N-((4,6-dimethyl-2-oxo-1,2-dihydropyridin-3-yl)methyl)-2-methyl-1H-indole-3-carboxamide] | < 100 nM | 2000 to 10000 nM | < 100 nM | – | – | – | – | –
Cc1ccc(C(C)n2c(C)c(C(=O)NCc3c(C)cc(C)[nH]c3=O)c3ccccc32)cc1 (racemic) [Compound 172, (±)-N-((4,6-dimethyl-2-oxo-1,2-dihydropyridin-3-yl)methyl)-2-methyl-1-(1-(p-tolyl)ethyl)-1H-indole-3-carboxamide] | < 100 nM | 2000 to 10000 nM | 100 to 1000 nM | – | – | – | – | –
Cc1cc(C)c(CNC(=O)c2c(C)n(C(C)c3cccc(Cl)c3)c3ccccc23)c(=O)[nH]1 (racemic) [Compound 181, (±)-1-(1-(3-chlorophenyl)ethyl)-N-((4,6-dimethyl-2-oxo-1,2-dihydropyridin-3-yl)methyl)-2-methyl-1H-indole-3-carboxamide] | < 100 nM | 400 to 2000 nM | < 100 nM | – | – | – | – | –
Cc1cc(C)c(COC(=O)c2c(C)n(C3CCc4ccccc43)c3ncccc23)c(=O)[nH]1 (racemic) [Compound 201, (±)-(4,6-dimethyl-2-oxo-1,2-dihydropyridin-3-yl)methyl 1-(2,3-dihydro-1H-inden-1-yl)-2-methyl-1H-pyrrolo[2,3-b]pyridine-3-carboxylate] | – | – | – | < 100 nM | 400 to 2000 nM | 100 to 1000 nM | – | –
Cc1cc(C)c(CNC(=O)c2c(C)n(C(C)c3ccccc3)c3cnccc23)c(=O)[nH]1 (racemic) [Compound 203, (±)-N-((4,6-dimethyl-2-oxo-1,2-dihydropyridin-3-yl)methyl)-2-methyl-1-(1-phenylethyl)-1H-pyrrolo[2,3-c]pyridine-3-carboxamide] | < 100 nM | 2000 to 10000 nM | 100 to 1000 nM | – | – | – | – | –
COCC(C)n1c(C)c(C(=O)NCc2c(OC)cc(C)[nH]c2=O)c2cccnc21 (racemic) [Compound 204, (±)-N-((4-methoxy-6-methyl-2-oxo-1,2-dihydropyridin-3-yl)methyl)-1-(1-methoxypropan-2-yl)-2-methyl-1H-pyrrolo[2,3-b]pyridine-3-carboxamide] | < 100 nM | 400 to 2000 nM | 100 to 1000 nM | – | – | – | – | –
COc1cc(C(C)n2c(C)c(C(=O)NCc3c(C)cc(C)[nH]c3=O)c3cccnc32)ccn1 (racemic) [Compound 207, (±)-N-((4,6-dimethyl-2-oxo-1,2-dihydropyridin-3-yl)methyl)-1-(1-(2-methoxypyridin-4-yl)ethyl)-2-methyl-1H-pyrrolo[2,3-b]pyridine-3-carboxamide] | < 100 nM | 2000 to 10000 nM | 100 to 1000 nM | – | – | – | – | –
Cc1cc(C)c(CNC(=O)c2c(C)n(C(C)c3cccc(S(C)(=O)=O)c3)c3ccccc23)c(=O)[nH]1 (racemic) [Compound 210, (±)-N-((4,6-dimethyl-2-oxo-1,2-dihydropyridin-3-yl)methyl)-2-methyl-1-(1-(3-(methylsulfonyl)phenyl)ethyl)-1H-indole-3-carboxamide] | < 100 nM | 2000 to 10000 nM | 100 to 1000 nM | – | – | – | – | –
Cc1cc(C)c(CNC(=O)c2c(C)n(C(C)C3CC3)c3ncccc23)c(=O)[nH]1 (racemic) [Compound 211, (±)-1-(1-cyclopropylethyl)-N-((4,6-dimethyl-2-oxo-1,2-dihydropyridin-3-yl)methyl)-2-methyl-1H-pyrrolo[2,3-b]pyridine-3-carboxamide] | < 100 nM | 400 to 2000 nM | 100 to 1000 nM | – | – | – | – | –
CCOCC(C)n1c(C)c(C(=O)NCc2c(OC)cc(C)[nH]c2=O)c2cccnc21 (racemic) [Compound 212, (±)-1-(1-ethoxypropan-2-yl)-N-((4-methoxy-6-methyl-2-oxo-1,2-dihydropyridin-3-yl)methyl)-2-methyl-1H-pyrrolo[2,3-b]pyridine-3-carboxamide] | < 100 nM | 400 to 2000 nM | 100 to 1000 nM | – | – | – | – | –
COc1cncc(C(C)n2c(C)c(C(=O)NCc3c(C)cc(C)[nH]c3=O)c3cccnc32)c1 (racemic) [Compound 215, (±)-N-((4,6-dimethyl-2-oxo-1,2-dihydropyridin-3-yl)methyl)-1-(1-(5-methoxypyridin-3-yl)ethyl)-2-methyl-1H-pyrrolo[2,3-b]pyridine-3-carboxamide] | 100 to 1000 nM | 2000 to 10000 nM | 1000 to 10000 nM | – | – | – | – | –
Cc1cc(C)c(CNC(=O)c2c(C)n(C(C)c3ccn(C)c(=O)c3)c3ccccc23)c(=O)[nH]1 (racemic) [Compound 222, (±)-N-((4,6-dimethyl-2-oxo-1,2-dihydropyridin-3-yl)methyl)-2-methyl-1-(1-(1-methyl-2-oxo-1,2-dihydropyridin-4-yl)ethyl)-1H-indole-3-carboxamide] | 100 to 1000 nM | > 10000 nM | 100 to 1000 nM | – | – | – | – | –
COCC(C)n1c(C)c(C(=O)NCc2c(OC)cc(C)[nH]c2=O)c2cc(F)ccc21 (racemic) [Compound 230, (±)-5-fluoro-N-((4-methoxy-6-methyl-2-oxo-1,2-dihydropyridin-3-yl)methyl)-1-(1-methoxypropan-2-yl)-2-methyl-1H-indole-3-carboxamide] | < 100 nM | 400 to 2000 nM | 100 to 1000 nM | – | – | – | – | –
COc1cc(C)[nH]c(=O)c1CNC(=O)c1c(C)n(C(C)c2ccccc2)c2cnccc12 (single isomer, unassigned) [Compound 259, (R or S)-N-((4-methoxy-6-methyl-2-oxo-1,2-dihydropyridin-3-yl)rnethyl)-2-methyl-1-(1-phenylethyl)-1H-pyrrolo[2,3-c]pyridine-3-carboxamide] | – | – | – | – | – | – | < 100 nM | 400 to 2000 nM
CCC(C)n1c(C)c(C(=O)NCc2c(C)cc(C)nc2O)c2ccccc21 (stereo not drawn) [Compound 123, 1-sec-butyl-N-((2-hydroxy-4,6-dimethylpyridin-3-yl)methyl)-2-methyl-1H-indole-3-carboxamide] | – | 400 to 2000 nM | – | – | – | – | – | –
